Consider 1 compound from patent publication US20150297600A1, “Method Of Achieving Increased Systemic Availability of Methotrexate” (Antares Pharma, Inc., priority 2014, published 2015).

Entries after “also recorded” stand apart in the source; their conditions may differ.

The text on data set [1]: An algorithm was developed to correlate a known oral dose of methotrexate to a jet injector dose. Table 1 illustrates the calculated correlation between oral doses and needle-assisted jet injector doses of methotrexate. The second column illustrates the precise subcutaneous dose calculated based on the algorithm, described in detail below. The third column represents the administrable dose, based on commercially available doses, closest in value to the precise calculated dose.
Based on the data set forth in table 1, a line equation of y=mx+b was developed to correlate an oral dose of methotrexate to an equivalent dose for use with a jet injector. In the present equation, illustrated by the graph shown in FIG. 1, the slope, m, was determined to be 0.6101 and a y-intercept, b, to be 2.9274. The correlation coefficient of the line, R^2, is 0.9594.

Data set [2] is described as follows: Multicenter three-way crossover study: oral vs subcutaneous (abdomen, thigh) methotrexate, blood drug levels for 24 hours and adverse events. It is filed as in vivo, patients with adult RA. The procedure:
A multicenter, three-way crossover study was conducted, wherein patients greater than or equal to 18 years old with adult RA undergoing treatment with MTX for three months or more were assigned to receive one of four dose levels of OTREXUP™ (subcutaneous methotrexate), 10 mg, 15 mg, 20 mg, and 25 mg weekly in a random sequence of three treatments: oral, subcutaneous into the abdomen and subcutaneous into the thigh. For 24 hours after the administration of each treatment, blood samples were collected to measure drug levels and injection sites were assessed.

For the compound `CN(Cc1cnc2nc(N)nc(N)c2n1)c1ccc(C(=O)N[C@@H](CCC(=O)O)C(=O)O)cc1` [methotrexate], in data set [1], the “slope, m, of line equation correlating oral dose to equivalent jet injector dose” value came to 0.6101 and the “y-intercept, b, of line equation correlating oral dose to equivalent jet injector dose” value amounted to 2.9274. The “plasma levels of oral dosed methotrexate, 20 mg or 25 mg doses versus 15 mg doses” value in data set [2] (oral) is “no greater”. Moreover, in data set [2] (oral, 10, 15, 20, 25 mg weekly, RA patients), the “systemic availability of methotrexate following oral dosing” value was “do not provide increased systemic availability; also recorded: plateaus at 15 mg and greater”. The “association of higher systemic methotrexate exposure with adverse events” value in data set [2] (short term study) is listed as “not associated with increases in adverse events”.
